Article PMC10222548, “Semisynthesis, Biological Evaluation and Molecular Docking Studies of Barbatic Acid Derivatives as Novel Diuretic Candidates” (Molecules, 2023)

How the values were obtained:
MDCK cells = assay: MTT cytotoxicity assay on MDCK cells; format: cell-based, canine; details: Canis lupus familiaris, 100 μmol/L, 24 h, mean ± SD of three replicates, read-out: Growth Inhibition Rate (%)
Description: First, we used the MTT method to perform cytotoxicity of barbatic acid derivatives (1, 6a–6p′) on MDCK cells at the concentration of 100 μmol/L, and the results are shown in Table 1.
The MTT assay was used to evaluate the cytotoxicity of the target compounds on DMCK cells. Logarithmic-growth-phase DMCK cells were seeded in a 96-well plate (10^4 cells/well) and incubated in a cell culture incubator for 24 h. The culture medium was then removed and replaced with a drug-containing medium for the treatment groups (1, 6a–6p′, 100 μmol/L), normal saline for the control group, or hydrochlorothiazide (100 μmol/L) for the positive control group. Each well was treated with 100 µL of the respective solution and incubated for an additional 24 h. The culture medium was then removed and replaced with a DMEM solution containing 20 µL of MTT (5 mg/mL). After incubating for 4 h, the liquid in each well was removed and replaced with 150 µL of DMSO, which was shaken for 10 min to ensure thorough mixing. The absorbance at 490 nm was measured to determine the optical density (OD) of each well. Cell growth inhibition rate (%) = (ODBlank − ODExperimental)/ODBlank × 100%.

[1] = system: C2O4^2− transport, MDCK cells; assay: In vitro litholytic activity: C2O4^2− transport inhibition, Transwell chamber with MDCK cells; format: cell-based, canine; details: for inhibition at 100 µM: Canis lupus familiaris, 100 μmol/L, MDCK cells in Transwell, mean ± SD of three replicates, read-out: Transport Inhibition Rate (%) C2O4^2−
Description: (§1) On the other hand, all compounds had little inhibitory effect on Ca^2+ transport. The structure–activity relationships (SARs) were also observed. […] On the other hand, the introduction of the benzyl group to the R^1 or R^2 of barbatic acid could not lead to more promising compounds, such as 6a, 6n, 6u, 6b′, and 6i′–p′.
(§2) Logarithmic-phase DMCK cells were inoculated in the upper chamber of a Transwell plate (4 × 10^4 cells/well). Then, 800 µL of complete culture medium was added to the lower chamber, and the cells were incubated for 24 h until they adhered to the wall. The resistance value of the upper chamber cells was measured one by one at 37 °C (R = (Rcell − Rblank) × 0.04π). When the resistance value of the upper chamber cells was ≥300 Ω cm^2, the upper chamber liquid was discarded for drug administration. A control group (given physiological saline) and an experimental group (1, 6a–6p′, 100 μmol/L) were set up, and 100 µL of each drug was administered per well, followed by continued incubation for 24 h. Then, the upper and lower chamber liquids were discarded, and 200 µL of CaC2O4 (30 mmol/L) solution was added to the upper chamber, and 800 µL of PBS solution was added to the lower chamber for continued incubation. At 0.5, 1, 2, and 3 h, 50 µL of the lower chamber liquid was taken and then tested using the Ca^2+ and C2O4^2− detection kits and the following detection methods. The transport inhibition rate (%) = (ODblank − ODexperimental)/ODblank × 100%.

[2] = system: Cl^− transport, MDCK cells; assay: In vitro diuretic activity: Cl^− transport inhibition, Transwell chamber seeded with MDCK cells; format: cell-based, canine; details: Canis lupus familiaris; 100 μmol/L, MDCK cells in Transwell; mean ± SD of three replicates; negative = promotion; read-out: Transport Inhibition Rate (%) Cl^−
Text: (§3) The traditional methods for screening diuretic drugs are mostly in vivo experiments with mice, which have a long experimental cycle and are not suitable for screening massive compounds. As we know, the generation and excretion of urine involve two processes: glomerular filtration and tubular reabsorption. Reabsorption refers to the process in which the renal tubular epithelial cells transport water and certain solutes from the tubular fluid (urine) partially or entirely back into the bloodstream. Then, 99% of the water in the original urine filtered by the glomerulus is reabsorbed, and the transport of Na^+ and Cl^− plays an important role in this process. Thiazide and furosemide diuretics exert their diuretic effects by inhibiting the transport of Na^+ and Cl^−, which affects the tubular reabsorption of the original urine. Based on this principle, we established a new type of cell screening model for diuretic active drugs. Madin–Darby canine kidney (MDCK) cells were inoculated into a Transwell chamber to simulate the renal tubules. This cell model could transport and absorb external NaCl, simulating the reabsorption phenomenon. […] The effectiveness of this model was confirmed by the validation of hydrochlorothiazide, which is a commercially available diuretic drug and could inhibit the transport of Na^+ and Cl^− in renal tubules.
(§4) Generally, the transport of Na^+ and Cl^− plays an important role in glomerular filtration and tubular reabsorption. […] For example, inhibition rates of transport of 6a and 6c were over 30%, and had better inhibitory ability than barbatic acid. […] When ethyl, propyl, and benzyl were substituted on R^1, the introduction of any group could not enhance the inhibitory activity of barbatic acid, such as 6h–u and 6j′–6p′.
(§5) Log-phase MDCK cells were seeded in the upper chambers of Transwell plates (4 × 10^4 cells/well), and 800 µL of complete culture medium was added to the lower chambers. After 24 h of incubation at 37 °C, the electrical resistance of the upper chamber cells was measured one by one (R = (Rcell − Rblank) × 0.04π). When the electrical resistance of the upper chamber cells reached ≥300 Ω cm^2, the upper chamber medium was removed and replaced with the drug solution. The blank group (given normal saline), the experimental group (1, 6a–6p′, 100 μmol/L), and the hydrochlorothiazide group (100 μmol/L) were set, and each well was treated with 100 µL of the corresponding solution. The cells were then further incubated for 24 h. After that, the upper and lower chamber fluids were removed, and 200 µL of NaCl solution (15 mg/mL) was added to the upper chamber, while 800 µL of DMEM was added to the lower chamber for continued incubation. At 0.5, 1, 2, and 3 h, 50 µL of the lower chamber fluid was taken and the OD values were measured using Na^+ and Cl^− detection kits. The transport inhibition rate (%) was calculated as follows: transport inhibition rate (%) = (ODblank − ODexperimental)/ODblank × 100%.

[3] = system: Na^+ transport, MDCK cells; assay: In vitro diuretic activity: Na^+ transport inhibition, Transwell chamber seeded with MDCK cells; format: cell-based, canine; details: 100 μmol/L, MDCK cells in Transwell, mean ± SD of three replicates, negative = promotion; for inhibition at 100 µM: Canis lupus familiaris, MDCK, read-out: Transport Inhibition Rate (%) Na^+
Text: as §3, §4, §5

[4] = system: Ca^2+ transport, MDCK cells; assay: In vitro litholytic activity: Ca^2+ transport inhibition, Transwell chamber with MDCK cells; format: cell-based, canine; details: Canis lupus familiaris, 100 μmol/L, mean ± SD of three replicates, read-out: Transport Inhibition Rate (%) Ca^2+
Description: as §1, §2

Row | Structure (SMILES) | inhibition at 100 µM (MDCK cells) [%] | C2O4^2− transport inhibition activity at different time periods ([1]; 1, 2, and 3 h (Figure 4)) | inhibition at 100 µM [1] [%] | inhibition at 100 µM [2] [%] | inhibition at 100 µM [3] [%] | inhibition at 100 µM [4] [%] | melting point [°C] | Transport Inhibition Rate (%) Na^+ [3] [%]
1 | CCOc1cc(C)c(C(=O)Oc2cc(C)c(C(=O)OCC#N)c(O)c2C)c(O)c1C [Compound 6m, 4-((cyanomethoxy)carbonyl)-3-hydroxy-2,5-dimethylphenyl 4-ethoxy-2-hydroxy-3,6-dimethylbenzoate] | < 0 | very strong and continual inhibitory activities | 61 ± 2.75 | -29.3 ± 1.75 | -2.99 ± 6 | 2.57 ± 0.1 | 160 to 163 | 
2 | CCOc1cc(C)c(C(=O)Oc2cc(C)c(C(=O)OCc3ccccc3)c(O)c2C)c(O)c1C [Compound 6n, benzyl 4-(4-ethoxy-2-hydroxy-3,6-dimethylbenzoyloxy)-2-hydroxy-3,6-dimethylbenzoate] | 0.36 ± 0.8 |  | 0.11 ± 0.7 | -4.47 ± 0.2 | -3.98 ± 0.15 | -2.13 ± 0.3 | 129 to 131 | 
3 | CCCOc1cc(C)c(C(=O)Oc2cc(C)c(C(=O)OC)c(O)c2C)c(O)c1C [Compound 6o, 3-hydroxy-4-(methoxycarbonyl)-2,5-dimethylphenyl 2-hydroxy-3,6-dimethyl-4-propoxybenzoate] | < 0 |  | 5.6 ± 3.85 | -2.8 ± 1.2 | -2.68 ± 0.45 | 4.43 ± 0.13 | 110 to 113 | 
4 | CCCOc1cc(C)c(C(=O)Oc2cc(C)c(C(=O)OCC)c(O)c2C)c(O)c1C [Compound 6p, 4-(ethoxycarbonyl)-3-hydroxy-2,5-dimethylphenyl 2-hydroxy-3,6-dimethyl-4-propoxybenzoate] | < 0 |  | 4.29 ± 0.24 | -18.38 ± 0.15 | -12.2 ± 0.45 | 4.79 ± 0.46 | 160 to 163 | 
5 | CCCOC(=O)c1c(C)cc(OC(=O)c2c(C)cc(OCCC)c(C)c2O)c(C)c1O [Compound 6q, 3-hydroxy-2,5-dimethyl-4-(propoxycarbonyl)phenyl 2-hydroxy-3,6-dimethyl-4-propoxybenzoate] | < 0 |  | -26 ± 4.17 | 11.6 ± 2.2 | 9.39 ± 0.25 | 4.61 ± 0.32 | 126 to 130 | 
6 | C=CCOC(=O)c1c(C)cc(OC(=O)c2c(C)cc(OCCC)c(C)c2O)c(C)c1O [Compound 6r, allyl 2-hydroxy-4-(2-hydroxy-3,6-dimethyl-4-propoxybenzoyloxy)-3,6-dimethylbenzoate] | < 0 |  | 9.67 ± 4.6 | -10.3 ± 1.4 | 1.14 ± 1.25 | 5.85 ± 0.36 | 98 to 111 | 
7 | CCCOc1cc(C)c(C(=O)Oc2cc(C)c(C(=O)OCC#N)c(O)c2C)c(O)c1C [Compound 6s, 4-((cyanomethoxy)carbonyl)-3-hydroxy-2,5-dimethylphenyl 2-hydroxy-3,6-dimethyl-4-propoxybenzoate] | < 0 |  | 15.7 ± 1.13 | -6.21 ± 0.3 | -27.9 ± 0.5 | -1.74 ± 0.12 | 135 to 138 | 
8 | CCCOc1cc(C)c(C(=O)Oc2cc(C)c(C(=O)OC(C)C)c(O)c2C)c(O)c1C [Compound 6t, 3-hydroxy-4-(isopropoxycarbonyl)-2,5-dimethylphenyl 2-hydroxy-3,6-dimethyl-4-propoxybenzoate] | 1.42 |  | 11.9 ± 5.83 | -44.1 ± 3.5 | -37.6 ± 0.55 | -1.74 ± 0.29 | 112 to 115 | 
9 | CCCOc1cc(C)c(C(=O)Oc2cc(C)c(C(=O)OCc3ccccc3)c(O)c2C)c(O)c1C [Compound 6u, benzyl 2-hydroxy-4-(2-hydroxy-3,6-dimethyl-4-propoxybenzoyloxy)-3,6-dimethylbenzoate] | < 0 |  | 22.3 ± 5.04 | -15.9 ± 0.55 | 6.31 ± 2.35 | 0.77 ± 0.09 | 111 to 114 | 
10 | COC(=O)c1c(C)cc(OC(=O)c2c(C)cc(OC(C)C)c(C)c2O)c(C)c1O [Compound 6v, 3-hydroxy-4-(methoxycarbonyl)-2,5-dimethylphenyl 2-hydroxy-4-isopropoxy-3,6-dimethylbenzoate] | < 0 |  | -17.9 ± 1.35 | -13.55 ± 0.1 | -9.43 ± 0.75 | 0.19 ± 0.29 | 60 to 63 | 
11 | CCOC(=O)c1c(C)cc(OC(=O)c2c(C)cc(OC(C)C)c(C)c2O)c(C)c1O [Compound 6w, 4-(ethoxycarbonyl)-3-hydroxy-2,5-dimethylphenyl 2-hydroxy-4-isopropoxy-3,6-dimethylbenzoate] | 0.7 ± 0.3 |  | 19 ± 2.64 | -80.4 ± 1.2 | > 30 | 1.55 ± 0.11 | 62 to 65 | 33.11 ± 0.55
12 | CCCOC(=O)c1c(C)cc(OC(=O)c2c(C)cc(OC(C)C)c(C)c2O)c(C)c1O [Compound 6x, 3-hydroxy-2,5-dimethyl-4-(propoxycarbonyl)phenyl 2-hydroxy-4-isopropoxy-3,6-dimethylbenzoate] | < 0 |  | -5.42 ± 2.83 | -1.92 ± 0.25 | -1.11 ± 1.75 | 2.74 ± 0.22 | 117 to 120 | 
13 | Cc1cc(OC(=O)c2c(C)cc(OC(C)C)c(C)c2O)c(C)c(O)c1C(=O)OC(C)C [Compound 6y, 3-hydroxy-4-(isopropoxycarbonyl)-2,5-dimethylphenyl 2-hydroxy-4-isopropoxy-3,6-dimethylbenzoate] | < 0 |  | -26.3 ± 5.41 | -43.3 ± 3.25 | 29.4 ± 1.85 | 3.47 ± 0.3 | 140 to 143 | 
